The values below come from US20230233687A1, “HYALURONIC ACID-BASED FORMULATIONS FOR TREATMENT AND PREVENTION OF OCULAR HYPERTENSION AND GLAUCOMA” (I.COM MEDICAL GMBH, priority 2020, published 2023).

Data set [1] in a line: Pre-test: latanoprost dissolved in the HA vehicle (HPLC). The data set is classed as physicochemical. The conditions noted are these: vehicle 0.15% w/v hylan A in phosphate buffered saline pH 7.4, 25 or 50 μg/ml added, stirred 18 hours at 40° C. Here is the method:
Sterile bulk solution for the production of COMFORT SHIELD® MDS eye drops (i.com medical GmbH, Munich, Germany) was used as vehicle for the preparation of prototype latanoprost bulk solution (PLBS). The vehicle contained 0.15% w/v hylan A (HA with 2.9 m^3/kg intrinsic viscosity) dissolved in phosphate buffered saline solution (8.035 g/l NaCl; 1.2 mmol/l Na2HPO4/NaH2PO4; pH 7.4). Latanoprost was obtained from Yonsung Fine Chemicals Co. Ltd., Gyeonggi-do, Republic of Korea. PLBS was prepared by medi-pharm Laboratorium GmbH, Falkensee, Germany by dissolving 20±1 μg/ml latanoprost in the vehicle.
In a pre-test 25 μg/ml and 50 μg/ml latanoprost were added to the vehicle and the solution stirred for 18 hours at 40° C. The latanoprost content was determined by HPLC using a Hypersil B D S C18 […], 150.0×4.0 mm column (VDS optilab) and a UV detector (200 nm).

For data set [2] the following is noted: PubChem CID 5311221; cited from earlier work.

Turning to `CC(C)OC(=O)CCC/C=C\C[C@@H]1[C@@H](CC[C@@H](O)CCc2ccccc2)[C@H](O)C[C@@H]1O` [latanoprost], the “latanoprost dissolved in the vehicle” value in data set [1] was 20.8 µg/mL. Further, in data set [2], the “solubility of latanoprost in water” value was 12.9 µg/mL.
